According to US12558336B2, “Metabolic rescue of retinal degeneration” (The Board of Trustees of the Leland Stanford Junior …, priority 2019, dated 2026):
“Also recorded” adds a separate entry of the source.

Tests used:
[1] = system: Pde6α^D670G mice; experiment: Electroretinography (ERG) of treated Pde6α^D670G arRP mice; conditions: vs untreated Pde6α^D670G mice, one month of age
Protocol: Mouse lines and husbandry—C57BL/6J-Pde6α^nmf363/nmf363, with a D670G mutation, herein referred to as Pde6α^D670G, mice were obtained from the Jackson Laboratory (Bar Harbor, ME, USA). Pde6α^D670G are co-isogenic in the C57BL/6J (B6) background; therefore, age-matched B6 mice were used as experimental controls. Mice were bred and maintained at the facilities of Columbia University and Stanford University. Animals were kept on a light-dark cycle (12 hour-12 hour). Food and water were available ad libitum throughout the experiment, whether treated or untreated. Dark-raising was performed under 24 hr dark cycle following approved institutional guidelines. […] All water bottles were covered in foil to reduce light exposure and changed weekly during the duration of the experiment following approved institutional guidelines.
Electroretinography (ERG)—Mice were dark-adapted overnight, manipulations were conducted under dim red-light illumination, and recordings were made using Espion or Celeris ERG Diagnosys equipment (Diagnosys LLL, Littleton, MA, USA) as previously described. Briefly, adult B6 control mice were tested at the beginning of each session to ensure equal readouts from the electrodes for both eyes before testing the experimental mice. Pupils were dilated using topical 2.5% phenylephrine hydrochloride and 1% tropicamide (Akorn Inc., Lakeforest, IL, USA). Mice were anesthetized by intraperitoneal injection of 0.1 ml/10 g body weight of anesthesia [1 ml ketamine 100 mg/ml (Ketaset III, Fort Dodge, IA, USA) and 0.1 ml xylazine 20 mg/ml (Lloyd Laboratories, Shenandoah, IA, USA) in 8.9 ml PBS]. Body temperature was maintained at 37° C. during the procedure. Both eyes were recorded simultaneously and responses were averaged for each trial. Responses were taken from the Espion/Celeris readout in microvolts.
Statistical and bioinformatics analysis—Results were also saved in Excel as .txt format and were uploaded into the Partek Genomics Suite 6.5 software package as described previously (5-9). The data was normalized to log base 2 and compared using 1-way ANOVA analysis. All proteins with non-significant (p>0.05) changes were eliminated from the table. The significant values were mapped using the ‘cluster based on significant genes’ visualization function with the standardization option chosen. […] Differences in experimental groups were determined by the Student's t-test as appropriate, or by one-way ANOVA followed by Tukey's post-hoc multiple comparison's test. p values <0.05 were considered significant. For ERG and histological analysis of mouse eyes, differences were determined by the Student's t-test as appropriate, or by one-way ANOVA followed by Tukey's post-hoc multiple comparison's test. p values<0.05 were considered significant.

[2] = system: Pde6α^D670G mice; experiment: Histological analysis of outer nuclear layer (ONL) thickness by number of photoreceptor cell nuclei; assay type: in vivo, mouse; conditions: vs untreated Pde6α^D670G mice, one month of age
Protocol: Histology—Mice were sacrificed and the eyes enucleated as previously described (19). Eyes were embedded in paraffin, sectioned, and stained with hematoxylin and eosin by Exaclibur Pathology, Inc. (Norman, OK), before being visualized by light microscopy (Leica DM 5000B, Leica Microsystems, Germany). Quantification of photoreceptor nuclei was conducted on several sections that contained the optic nerve, as follows: the distance between the optic nerve and the ciliary body was divided into four, approximately equal, quadrants. Three columns of nuclei (how many cell nuclei thick) were counted within each single quadrant. These counts were then used to determine the average thickness of the ONL for each individual animal at each time. Sectioning proceeded along the long axis of the segment, so that each section contained upper and lower retina as well as the posterior pole.
Gene ontology (GO) analysis was also performed in PANTHER.

## NC(=O)c1cccnc1 [vitamin B3, Nicotinamide]
[1]
  maximum scotopic a-wave response, quantification of ERGs from a cohort of mice: no significant visual rescue
  maximum scotopic b-wave response, quantification of ERGs from a cohort of mice: no significant visual rescue
  rod photoreceptor cell response, quantification of ERGs from a cohort of mice: no significant visual rescue
[1]; vitamins 2.5 g/L or alpha-ketoglutarate 10 g/L in drinking water from P0, ketogenic diet from P21
  rod photoreceptor cell response, scotopic 0.1 dim-light rod-specific ERG (representative traces): increased rod photoreceptor functional response

## O=C(O)CCC(=O)C(=O)O [alpha-ketoglutarate, Alpha-ketoglutaric acid]
[2]
  thickness of the outer nuclear layer (ONL) by number of photoreceptor cell nuclei: significant rescue of photoreceptor cells and their inner/outer segments; also recorded: significant increase in the thickness of the outer nuclear layer (ONL)
